Data taken from patent publication US10070645B2, “N-cycloalkyl-N-{[2-(1-substitutedcycloalkyl)phenyl]methylene}-(thio)carboxamide derivatives” (BAYER CROPSCIENCE AKTIENGESELLSCHAFT, priority 2013, dated 2018).

assay: log P by HPLC on a reversed-phase column (C 18), EEC Directive 79/831 Annex V.A8; assay type: physicochemical; details: HPLC on reversed-phase column (C 18), 40° C., 0.1% aqueous formic acid and acetonitrile, linear gradient 10% to 90% acetonitrile
Procedure: In table 1, the log P values were determined in accordance with EEC Directive 79/831 Annex V.A8 by HPLC (High Performance Liquid Chromatography) on a reversed-phase column (C 18), using the method described below:
Temperature: 40° C.; Mobile phases: 0.1% aqueous formic acid and acetonitrile; linear gradient from 10% acetonitrile to 90% acetonitrile.
Calibration was carried out using unbranched alkan-2-ones (comprising 3 to 16 carbon atoms) with known log P values (determination of the log P values by the retention times using linear interpolation between two successive alkanones). lambda-max-values were determined using UV-spectra from 200 nm to 400 nm and the peak values of the chromatographic signals.

logP | Structure (SMILES)
4.09 | Cn1nc(C(F)F)c(C(=O)N(Cc2cc(F)ccc2C2(C)CC2(Cl)Cl)C2CC2)c1F (racemic) [I.170]
3.52 | COCC1(c2ccc(C)cc2CN(C(=O)c2c(C(F)F)nn(C)c2F)C2CC2)CC1 [I.182]
4.73 | Cn1nc(C(F)F)c(C(=O)N(Cc2cc(Cl)c(Cl)cc2C2(C)CC2)C2CC2)c1F [I.180]
2.34 | Cn1nc(C(F)F)c(C(=O)N(Cc2ccccc2C2(C(F)(F)F)CC2)C2CC2)c1F [I.161]
4.21 | Cn1nc(C(F)F)c(C(=O)N(Cc2cc(F)ccc2C2(C)CC2(Cl)Cl)C2CC2)c1Cl (racemic) [I.171]
4.78 | Cc1ccc(C2(C)CC2(Cl)Cl)c(CN(C(=O)c2c(C(F)F)nn(C)c2Cl)C2CC2)c1Cl (racemic) [I.177]
4.13 | Cn1nc(C(F)F)c(C(=O)N(Cc2cc(Cl)ccc2C2(C(F)(F)F)CC2)C2CC2)c1F [I.163]
4.24 | Cc1ccc(C2(C)CC2(Cl)Cl)c(CN(C(=O)c2c(C(F)F)nn(C)c2F)C2CC2)c1 (racemic) [I.172]

same assay, conditions: HPLC, reversed-phase column (C 18), 40° C., 0.1% aqueous formic acid and acetonitrile, linear gradient 10% to 90% acetonitrile

logP | Structure (SMILES)
4.43 | Cn1nc(C(F)F)c(C(=O)N(Cc2ccc(Cl)cc2C2(C)CC2)C2CC2)c1F [I.018]
3.80 | COC1(c2ccc(-c3ccoc3)cc2CN(C(=O)c2c(C(F)F)nn(C)c2F)C2CC2)CC1 [I.125]
3.55 | COC1(c2ccc(C3=CCOCC3)cc2CN(C(=O)c2c(C(F)F)nn(C)c2F)C2CC2)CC1 [I.124]
4.06 | CCOC1(c2ccc(C)cc2CN(C(=O)c2c(C(F)F)nn(C)c2F)C2CC2)CC1 [I.139]
4.34 | CCC1(c2ccccc2CN(C(=O)c2c(C(F)F)nn(C)c2Cl)C2CC2)CC1 [I.097]
4.30 | Cn1nc(C(F)F)c(C(=O)N(Cc2cccc(Cl)c2C2(C)CC2)C2CC2)c1F [I.005]
3.89 | C#CC1(c2ccc(Cl)cc2CN(C(=O)c2c(C(F)F)nn(C)c2Cl)C2CC2)CC1 [I.091]
4.29 | COC1(c2ccc(C(C)C)cc2CN(C(=O)c2c(C(F)F)nn(C)c2F)C2CC2)CC1 [I.121]
4.16 | Cn1nc(C(F)F)c(C(=O)N(Cc2cc(F)c(F)cc2C2(C)CC2)C2CC2)c1Cl [I.049]
4.80 | Cc1ccc(C2(C)CC2)c(CN(C(=S)c2c(C(F)F)nn(C)c2F)C2CC2)c1 [I.073]
3.87 | Cn1nc(C(F)F)c(C(=O)N(Cc2ccc(C3CCOCC3)cc2C2(C)CC2)C2CC2)c1F [I.047]
4.46 | Cn1nc(C(F)F)c(C(=O)N(Cc2c(C(F)(F)F)cccc2C2(C)CC2)C2CC2)c1F [I.088]
3.68 | C#CC1(c2ccc(C)cc2CN(C(=O)c2c(C(F)F)nn(C)c2F)C2CC2)CC1 [I.092]
4.95 | Cc1ccc(C2(C(C)C)CC2)c(CN(C(=O)c2c(C(F)F)nn(C)c2F)C2CC2)c1 [I.137]
5.11 | Cc1ccc(C2(C(C)C)CC2)c(CN(C(=O)c2c(C(F)F)nn(C)c2Cl)C2CC2)c1 [I.136]
4.90 | Cn1nc(C(F)F)c(C(=S)N(Cc2cc(F)c(F)cc2C2(C)CC2)C2CC2)c1Cl [I.050]
4.56 | Cn1nc(C(F)F)c(C(=O)N(Cc2cc(Br)ccc2C2(C)CC2)C2CC2)c1Cl [I.057]
4.34 | CCC1(c2cccc(F)c2CN(C(=O)c2c(C(F)F)nn(C)c2Cl)C2CC2)CC1 [I.115]
4.85 | CCC1(c2ccccc2CN(C(=S)c2c(C(F)F)nn(C)c2F)C2CC2)CC1 [I.098]

Continued, compound first:

Structure (SMILES) | logP
Cn1nc(C(F)F)c(C(=S)N(Cc2ccc(F)cc2C2(C)CC2)C2CC2)c1F [I.023] | 4.56
Cc1cc(CN(C(=O)c2c(C(F)F)nn(C)c2F)C2CC2)c(C2(C)CC2)cc1C [I.051] | 4.36
Cn1nc(C(F)F)c(C(=O)N(Cc2cccc(Cl)c2C2(C)CC2)C2CC2)c1Cl [I.006] | 4.44
COC1(c2ccccc2CN(C(=O)c2c(C(F)F)nn(C)c2F)C2CC2)CC1 [I.116] | 3.27
C=C(C)c1ccc(C2(OC)CC2)c(CN(C(=O)c2c(C(F)F)nn(C)c2F)C2CC2)c1 [I.127] | 4.12
Cn1nc(C(F)F)c(C(=O)N(Cc2cc(Cl)ccc2C2(C)CC2)C2CC2)c1Cl [I.061] | 4.44
Cc1ccc(C2(C3CC3)CC2)c(CN(C(=O)c2c(C(F)F)nn(C)c2Cl)C2CC2)c1 [I.135] | 4.72
Cn1nc(C(F)F)c(C(=O)N(Cc2ccc(C3CC3)cc2C2(C)CC2)C2CC2)c1F [I.020] | 4.51
Cn1ccc(-c2ccc(CN(C(=O)c3c(C(F)F)nn(C)c3F)C3CC3)c(C3(C)CC3)c2)c1 [I.034] | 4.15
Cc1cc(CN(C(=O)c2c(C(F)F)nn(C)c2Cl)C2CC2)c(C2(C)CC2)cc1C [I.052] | 4.53
COC1(c2ccc(C)cc2CN(C(=O)c2c(C(F)F)nn(C)c2Cl)C2CC2)CC1 [I.123] | 3.74
CCOC1(c2ccc(C)cc2CN(C(=O)c2c(C(F)F)nn(C)c2Cl)C2CC2)CC1 [I.138] | 4.21
COc1cc(CN(C(=O)c2c(C(F)F)nn(C)c2Cl)C2CC2)c(C2(C)CC2)cc1OC [I.054] | 3.46
CC(C)c1ccc(C2(C)CC2)c(CN(C(=O)c2c(C(F)F)nn(C)c2F)C2CC2)c1 [I.070] | 4.61
Cn1nc(C(F)F)c(C(=O)N(Cc2ccc(Cl)cc2C2(C)CC2)C2CC2)c1Cl [I.019] | 4.54
COC1(c2ccccc2CN(C(=O)c2c(C(F)F)nn(C)c2Cl)C2CC2)CC1 [I.117] | 3.42
Cn1nc(C(F)F)c(C(=O)N(Cc2cccc(F)c2C2(C)CC2)C2CC2)c1F [I.008] | 3.89
Cc1ccc(C2(C)CC2)c(CN(C(=O)c2c(C(F)F)nn(C)c2Cl)C2CC2)c1 [I.072] | 4.36
C#CC1(c2ccc(Cl)cc2CN(C(=O)c2c(C(F)F)nn(C)c2F)C2CC2)CC1 [I.090] | 3.73
Cc1ccc(C2(C(F)F)CC2)c(CN(C(=O)c2c(C(F)F)nn(C)c2F)C2CC2)c1 [I.153] | 3.64
Cn1nc(C(F)F)c(C(=O)N(Cc2c(Br)cccc2C2(C(F)F)CC2)C2CC2)c1F [I.155] | 3.76
Cn1nc(C(F)F)c(C(=O)N(Cc2c(C3(C)CC3)ccc(Cl)c2Cl)C2CC2)c1F [I.085] | 4.51
Cn1nc(C(F)F)c(C(=O)N(Cc2ccc(C3=CCOCC3)cc2C2(C)CC2)C2CC2)c1F [I.037] | 3.94
Cc1ccc(C2(C)CC2)c(CN(C(=O)c2c(C(F)F)nn(C)c2F)C2(C#N)CC2)c1 [I.076] | 3.73
Cn1nc(C(F)F)c(C(=S)N(Cc2ccc(F)cc2C2(C)CC2)C2CC2)c1Cl [I.024] | 4.74
Cc1ccc(F)cc1-c1ccc(CN(C(=O)c2c(C(F)F)nn(C)c2F)C2CC2)c(C2(C)CC2)c1 [I.042] | 5.31
COc1ccc(CN(C(=S)c2c(C(F)F)nn(C)c2F)C2CC2)c(C2(C)CC2)c1 [I.030] | 4.34

same assay, conditions: Table 3 (amines of formula II); HPLC C 18, 40° C., 0.1% aqueous formic acid and acetonitrile

logP | Structure (SMILES)
1.08 | Fc1ccc(C2(C(F)F)CC2)c(CNC2CC2)c1 [II.39, N-{2-[1-(difluoromethyl)cyclopropyl]-5-fluorobenzyl}cyclopropanamine]

same assay, conditions: reversed-phase HPLC column (C 18); Table 3 (amines of formula II); HPLC C 18, 40° C., 0.1% aqueous formic acid and acetonitrile

chromatographic logP | Structure (SMILES)
1.19 | Cc1ccc(C2(C#N)CC2)c(CNC2CC2)c1 [II.21, 1-{2-[(cyclopropylamino)methyl]-4-methylphenyl}cyclopropanecarbonitrile]
1.54 | CC1(c2cc(Cl)ccc2CNC2CC2)CC1 [II.04, N-[4-chloro-2-(1-methylcyclopropyl)benzyl]cyclopropanamine]
1.3 | FC(F)C1(c2ccc(Br)cc2CNC2CC2)CC1 [II.37, N-{5-bromo-2-[1-(difluoromethyl)cyclopropyl]benzyl}cyclopropanamine]
1.09 | Cc1ccc(C2(C(F)F)CC2)c(CNC2CC2)c1 [II.40, N-{2-[1-(difluoromethyl)cyclopropyl]-5-methylbenzyl}cyclopropanamine]
1.14 | CCC1(c2cccc(F)c2CNC2CC2)CC1 [II.31, N-[2-(1-ethylcyclopropyl)-6-fluorobenzyl]cyclopropanamine]
1.34 | Cc1ccc(C2(Cl)CC2)c(CNC2CC2)c1 [II.34, N-[2-(1-chlorocyclopropyl)-5-methylbenzyl]cyclopropanamine]
1.16 | FC(F)C1(c2ccc(Cl)cc2CNC2CC2)CC1 [II.38, N-{5-chloro-2-[1-(difluoromethyl)cyclopropyl]benzyl}cyclopropanamine]
1.36 | CC1(c2c(F)cccc2CNC2CC2)CC1 [II.02, N-[3-fluoro-2-(1-methylcyclopropyl)benzyl]cyclopropanamine]
1.47 | CCC1(c2cc(C)ccc2CNC2CC2)CC1 [II.26, N-[2-(1-ethylcyclopropyl)-4-methylbenzyl]cyclopropanamine]

same assay, conditions: reversed-phase HPLC column (C 18); Table 4 (aldehydes of formula IV); HPLC C 18, 40° C., 0.1% aqueous formic acid and acetonitrile

chromatographic logP | Structure (SMILES)
2.56 | COc1cc(C=O)c(C2(C)CC2)cc1OC [IV.08, 4,5-dimethoxy-2-(1-methylcyclopropyl)benzaldehyde]
3.22 | CC1(c2ccc(F)cc2C=O)CC1 [IV.11, 5-fluoro-2-(1-methylcyclopropyl)benzaldehyde]
3.01 | Cc1ccc(C2(C(F)F)CC2)c(C=O)c1 [IV.21, 2-[1-(difluoromethyl)cyclopropyl]-5-methylbenzaldehyde]
1.91 | O=Cc1cc(Cl)ccc1C1(C(=O)O)CC1 [IV.24, 1-(4-chloro-2-formylphenyl)cyclopropanecarboxylic acid]
3.44 | CC1(c2cc(F)c(F)cc2C=O)CC1 [IV.06, 4,5-difluoro-2-(1-methylcyclopropyl)benzaldehyde]

same assay, conditions: reversed-phase HPLC column (C 18); preparation examples

chromatographic logP | Structure (SMILES)
1.08 | Fc1ccc(C2(C(F)F)CC2)c(CNC2CC2)c1 [II.39, N-{2-[1-(difluoromethyl)cyclopropyl]-5-fluorobenzyl}cyclopropanamine]
